Consider twelve molecules from US5889018A, “Heterocyclic compounds, pharmaceutical compositions comprising them and process for the preparation thereof” (Egis Gyogyszergyar RT., priority 1994, dated 1999).

Structures are written as SMILES. Read-outs that look alike come from different tables or passages of the source. Some results are limits rather than exact numbers.

One series deals with Male Wistar rats. The series can be described thus: Vogel Test (Lick Conflict Test), anxiolytic activity. The conditions noted are these: Rattus norvegicus, po, 1 h, p.o., one hour before testing, read-out: Minimum effective dose (mg/kg, p.o.). The series is classed as in vivo. How it is done: 1. Vogel Test (Lick Conflict Test)
Male Wistar rats of 160 to 180 g body weight were kept free of food and drinking water for 24 and 48 hours, respectively. The test and carrier substances (0.4% methyl-cellulose) were administered orally one hour before testing. Groups consisting of 8 animals were used. The rats within the experimental chamber were provided with drinking water through an inserted tube. After the animals' each twenty lapping for water the device emitted a 1.4 mA intensity electric shock through the drinking tube. During 5 minutes the shocks tolerated by the animals in order to quench their thirst were counted. The effect of treatment was expressed as the % increase of the tolerated shocks. The minimum effective dose (MED) was determined for each test compound (Vogel, J. R., Beer, B., Clody, D. E.: Psycho-pharmacologia (Berl.) 21, 1 /1971/).

A further series can be described thus: in vivo. The conditions noted are these: mouse, NMRI mice, 7 days observation. How it is done:
White mice belonging to the NMRI strain (body weight 20 to 25 g. both male and female) were used, 6 animals for each dose. The test compound was administered orally in a volume of 20 ml/kg, the maximum oral and intraperitoneal doses were 1000 mg/kg and 300 mg/kg, respectively. […] The mice were kept under usual laboratory conditions.

The subject of series [1] is Male Wistar rats (Charles River). Put plainly: Hole-Board Test, head-dipping activity. The conditions noted are these: Rattus norvegicus, po, 1 h, p.o., one hour before testing, from head-dipping activity, read-out: Minimum effective dose (mg/kg, p.o.). In kind it is in vivo. How it is done:
The experiment was carried out according to a slightly modified method of File [File, S. E., Wardill, A. G., Psychopharmacologia, 44, 53-59, (1975)]. Male Wistar rats (Charles River) weighing 160-200 g were fasted for 24 hours prior to the experiment. They were treated orally in a volume of 5 ml/kg one hour before testing, a treated group consisted of 12 animals. The test compounds were suspended in 0,4 methylcellulose solution, the control group was treated with methylcellulose. All procedures were carried out in a quiet, air-conditioned laboratory between 9:00 and 13:00 hours at ambient temperature (23°+2° C.). Locomotor and head-dipping activity were measured using automated test chambers (Digiscan, OMNITECH Electronics Inc., Columbus, Ohio). The floor of each box contained 4 equally spaced holes (3.5 cm in diameter) through which rat could pop its head. Interruptions of infrared beams (16 of them is located 1.0 cm below and an other […] above the floor level) were automatically recorded by digiscan analyser and then transmitted to a computer and analysed by OASIS softwer. The hole-board testing involved placing a rat in the center of the floor and allowing it to explore for 5 minutes.
At the end of each trial any boluses were removed and the box was thoroughly wiped. Minimum effective doses of the compounds were calculated from the head-dipping activity values.

For series [2], the system named is Male rats belonging to the Sprague Dawley strain. The series can be described thus: Elevated Plus Maze Test on Rat, anxiolytic activity. Conditions: for minimal effective dose: Rattus norvegicus, po, 1 h, p.o., 60 minutes pretreatment, significant increase of time spent on the open arms, Sprague Dawley rats, read-out: Minimum effective dose (mg/kg, p.o.). In kind it is in vivo. How it is done: 1.2 Elevated Plus Maze Test on Rat
The test was carried out with the aid of a wooden plus-shaped maze elevated to a height of 50 cm. Two arms (100 cm long and 15 cm wide)--opposite to one another--were enclosed up to a height of 40 cm along their longer sides and at the end. The other two arms were without walls (open arms). The central 15×15 cm part was open. Male rats belonging to the Sprague Dawley strain and weighing 220 to 260 g were used as test animals. After pretreatment lasting 60 minutes the animals were placed into the central part of the maze. During the 5 minutes observation period the following parameters were recorded: […]
time spent on the open arms time spent on the closed arms number of open arm entries number of closed arm entries.
The drug effect was expressed as percent increase of the time spent on the open arms and number of open arm entries. The minimum effective dose which caused a significant increase of the time spent on the open arms was calculated for every substance [Pelow, S., Chopin, P., File, S. E., Briley, M.: J. Neurocsi. Methods 14, 149-167 (1985)].

The mark [3] stands for this setting: ip, read-out: LD50 (mg/kg, i.p.).
The mark [4] stands for this setting: po, read-out: LD50 (mg/kg, p.o.).

As to `COc1cc2cc(C)nc(C=Cc3ccc(C#N)cc3)c2c(OC)c1OC` [Example 9, 1-(4-cyanostyryl)-3-methyl-6,7,8-trimethoxyisoquinoline], the minimal effective dose in the series on Male Wistar rats stood at 0.01 mg/kg. In addition, the LD50 at 168 h in “in vivo” (setting [3]) was above 300 mg/kg; in “in vivo” (setting [4]), above 1000 mg/kg.

For `CN1C(=O)CN=C(c2ccccc2)c2cc(Cl)ccc21` [Diazepam, reference compound], the minimal effective dose in the series on Male Wistar rats stood at 0.1 mg/kg; in series [1], 0.1 mg/kg; in series [2] it was 2.5 mg/kg.

As for `COc1cc2ccnc(C=Cc3ccc(F)cc3)c2cc1OC` [Example 5, 1-(4-fluorostyryl)-6,7-dimethoxyisoquinoline], the minimal effective dose with Male Wistar rats stood at 0.0003 mg/kg. Moreover, the LD50 at 168 h in “in vivo” (setting [3]) was above 300 mg/kg; in “in vivo” (setting [4]) it was above 1000 mg/kg.

With `COc1ccc(C=Cc2nccc3cc(OC)c(OC)cc23)cc1` [Example 21, 6,7-dimethoxy-1-(4-methoxystyryl)-isoquinoline], the minimal effective dose in the series with Male Wistar rats was determined as 0.03 mg/kg; in series [1], 0.01 mg/kg. The LD50 at 168 h was above 300 mg/kg in “in vivo” (setting [3]) and above 1000 mg/kg in the series “in vivo” (setting [4]).

As for `Clc1ccc(C=Cc2nccc3ccccc23)c(Cl)c1` [Example 8, 1-(2,4-dichlorostyryl)-isoquinoline], the LD50 at 168 h was above 300 mg/kg in the series “in vivo” (setting [3]) and above 1000 mg/kg in “in vivo” (setting [4]).

For the molecule `COc1cc2ccnc(C=Cc3ccc(C(F)(F)F)cc3)c2cc1OC` [Example 6, 6,7-dimethoxy-1-[4-(trifluoromethyl)-styryl]-isoquinoline], the minimal effective dose in the series with Male Wistar rats is 0.01 mg/kg; in series [1] it was 0.0001 mg/kg. For the same molecule, the LD50 at 168 h is above 300 mg/kg in the series “in vivo” (setting [3]) and above 1000 mg/kg in “in vivo” (setting [4]).

Regarding `FC(F)(F)c1ccc(C=Cc2nccc3cc4c(cc23)OCO4)cc1` [Example 3, 6,7-methylenedioxy-1-[(4-trifluoromethyl)-styryl]-isoquinoline], the values for the minimal effective dose (in the series on Male Wistar rats; in series [1]; in series [2]) were 1e-05 mg/kg, 0.0001 mg/kg and 0.1 mg/kg, respectively. Moreover, the LD50 at 168 h in “in vivo” (setting [3]) was above 300 mg/kg; in the series “in vivo” (setting [4]), above 1000 mg/kg. Moreover, the “times more effective than diazepam” value in series [2] (elevated plus maze, relative to diazepam) stood at 25 times.

In the case of `COc1cc2cc(C)nc(C=Cc3ccc(Cl)cc3)c2cc1OC` [Example 2, 1-(4-chlorostyryl)-3-methyl-6,7-dimethoxyisoquinoline], the LD50 at 168 h in “in vivo” (setting [3]) is above 300 mg/kg; in the series “in vivo” (setting [4]), above 1000 mg/kg.

Turning to `Cc1cc2cc3c(cc2c(C=Cc2cccc(Br)c2)n1)OCO3` [Example 19, 1-(3-bromostyryl)-3-methyl-6,7-methylenedioxyisoquinoline], the LD50 at 168 h was above 300 mg/kg in the series “in vivo” (setting [3]) and above 1000 mg/kg in “in vivo” (setting [4]).

Regarding `COc1ccc(C=Cc2nccc3cc4c(cc23)OCO4)cc1OC` [Example 20, 1-(3,4-dimethoxystyryl)-6,7-methylenedioxyisoquinoline], the LD50 at 168 h in the series “in vivo” (setting [3]) is above 300 mg/kg; in the series “in vivo” (setting [4]), above 1000 mg/kg.

As for `COc1cc2cc(C)nc(C=Cc3ccc([N+](=O)[O-])cc3)c2cc1OC` [Example 4, 3-methyl-6,7-dimethoxy-1-(4-nitrostyryl)-isoquinoline], the minimal effective dose in the series on Male Wistar rats is 0.01 mg/kg. Further, the LD50 at 168 h is above 300 mg/kg in the series “in vivo” (setting [3]) and above 1000 mg/kg in the series “in vivo” (setting [4]).

In the case of `COc1ccc(C=Cc2nccc3cc(OC)c(OC)cc23)cc1OC` [Example 7, 1-(3,4-dimethoxystyryl)-6,7-dimethoxyisoquinoline], the LD50 at 168 h in “in vivo” (setting [3]) was above 300 mg/kg; in “in vivo” (setting [4]), 1000 mg/kg.
